Experimental findings from paper PMC6255377, “New 1-Aryl-3-Substituted Propanol Derivatives as Antimalarial Agents” (Molecules, 2009) are described below.

Where a name gives a salt, the structure may show the parent alone. Where only a bound is given, the exact number is not on record here.

Test system in the first data set: not given
Experiment: not given
Settings: not given
By melting point is commonly meant the temperature of the solid-liquid transition. In turn, `O=C(CCN1CCCN(c2ccc([N+](=O)[O-])cc2)CC1)c1csc2ccccc12` (as salt: hydrochloride) [Compound 9, 1-(benzo[b]thiophen-3-yl)-3-[4-(4-nitrophenyl)-1,4-diazepan-1-yl]propan-1-one] had a melting point of 121 to 123 °C.
Consider `COc1cccc(N2CCN(CCC(O)c3csc4ccc(F)cc34)CC2)c1` (centres unmarked) (as salt: hydrochloride) [Compound 16, 1-(5-fluorobenzo[b]thiophen-3-yl)-3-[4-(3-methoxyphenyl)piperazin-1-yl]propan-1-ol], for which the melting point lay in the range of 135 to 137 °C.
Same read-out and setting: the same measure for `COc1ccccc1N1CCN(CCC(O)c2ccc3cc(C)ccc3c2)CC1` (centres unmarked) (as salt: hydrochloride) [Compound 44, 1-(6-methylnapth-2-yl)-3-[4-(2-methoxyphenyl)piperazin-1-yl]propan-1-ol]: 116 to 117 °C.
Same read-out and setting: the same measure for `O=[N+]([O-])c1ccc([C@@]2(NCCC(O)c3ccc4ccccc4c3)CCNC2)c(C(F)(F)F)c1` (stereo partly drawn) (as salt: hydrochloride) [Compound 45, 1-(2-naphthyl)-3-[3-(4-nitro-2-trifluoromethylphenyl)-(S)-pyrrolidin-3-ylamino]-propan-1-ol]: 181 to 183 °C.
On the same count and under the same terms, the value for `O=C(CCN1CCN(c2ccc([N+](=O)[O-])cc2C(F)(F)F)CC1)c1csc2ccccc12` [Compound 6, 1-(Benzo[b]thiophen-3-yl)-3-[4-(4-nitro-2-trifluoromethylphenyl)piperazin-1-yl]propan-1-ona] was 140 to 141 °C; that for `O=C(CCN1CC[C@@H](Nc2ccc([N+](=O)[O-])cc2C(F)(F)F)C1)c1csc2ccccc12` [Compound 7, 1-(Benzo[b]thiophen-3-yl)-3-[3-(4-nitro-2-trifluoromethylphenylamino)-(R)-pyrrolidin-1-yl] propan-1-one] was 98 to 100 °C; that for `O=C(CCNC1CCN(c2ccc([N+](=O)[O-])cc2)CC1)c1csc2ccccc12` [Compound 8, 1-(Benzo[b]thiophen-3-yl)-3-[1-(4-nitrophenyl)piperidin-4-ylamino]propan-1-one] was 144 to 145 °C.
`O=C(CCN1CCN(c2cnc3ccccc3n2)CC1)c1csc2ccccc12` [Compound 10, 1-(Benzo[b]thiophen-3-yl)-3-[4-(quinoxalin-2-yl)piperazin-1-yl]propan-1-one] came in with a melting point of 145 to 146 °C.
As to `O=[N+]([O-])c1ccc(N2CCN(CCC(O)c3csc4ccccc34)CC2)c(C(F)(F)F)c1` (centres unmarked) [Compound 28, 1-(Benzo[b]thiophen-3-yl)-3-[4-(4-nitro-2-trifluoromethylphenyl)piperazin-1-yl]propan-1-ol], the melting point was in the range of 154 to 155 °C.
Same read-out and setting: the value for `O=[N+]([O-])c1ccc(N[C@@H]2CCN(CCC(O)c3csc4ccccc34)C2)c(C(F)(F)F)c1` (stereo partly drawn) [Compound 29, 1-(Benzo[b]thiophen-3-yl)-3-[3-(4-nitro-2-trifluoromethylphenylamino)-(R)-pyrrolidin-1-yl]propan-1-ol] was 48 to 50 °C.

For a further data set, the system named is P. falciparum 3D7 strain, chloroquine sensitive. Briefly: In vitro antimalarial activity screening (SYBR Green I micromethod). The format is cell-based. Particulars: Plasmodium falciparum, 3D7; Table 1; 48 h incubation; mean of two experiments in triplicate; read-out: P. falciparum 3D7 IC50. As to the method: The SYBR^©GreenI-based micromethod was followed for testing the antimalarial activity of the compounds. Erythrocytic stages of P. falciparum 3D7 strain, chloroquine sensitive, were maintained in RPMI 1640 culture medium supplemented with 0.5% Albumax II at 37 °C in an atmosphere with 5% CO2. […] Next, stock solutions of each compound were prepared in DMSO and diluted in RPMI medium in order to obtain concentrations from 10 to 0.01 µg/mL. […] All compounds and controls were placed in triplicate. The plate was incubated under the same conditions. After 48 h, the plate was removed from the incubator and frozen for at least 1 h at -70 °C and then thawed. Finally, 100 µL of SYBR^©GreenI in lysis buffer (0.2 µL/mL) was added per well and shaken for 5 minutes or until no precipitated erythrocytes were observed. The plate was left to stand in the dark for 1 h at room temperature. Fluorescence intensity (FI) for each well was measured. The background of the nonparasitized erythrocytes was subtracted from each well tested.
What is called IC50 is the concentration at which inhibition is half-maximal. `O=C(CCN1CCN(c2cccc3ccccc23)CC1)c1csc2ccc(F)cc12` [Compound 1]: the IC50 is over 20 µM.
Turning to `COc1ccccc1N1CCN(CCC(=O)c2csc3ccc(F)cc23)CC1` [Compound 2], the IC50 is over 20 µM.
Regarding `COc1ccccc1N1CCN(CCC(=O)c2csc3ccccc23)CC1` [Compound 3], the IC50 was over 20 µM.
On the same count and under the same terms, the value for `O=C(CCN1CCN(c2cccc3cccnc23)CC1)c1csc2ccc(F)cc12` [Compound 4] was over 20 µM.
Still for that read-out and setting: the same measure for `Cc1ccc2cccc(N3CCN(CCC(=O)c4csc5ccccc45)CC3)c2n1` [Compound 5]: over 20 µM.
Consider `O=C(CCN1CCN(c2ccc([N+](=O)[O-])cc2C(F)(F)F)CC1)c1csc2ccccc12` [Compound 6, 1-(Benzo[b]thiophen-3-yl)-3-[4-(4-nitro-2-trifluoromethylphenyl)piperazin-1-yl]propan-1-ona], for which the 50% inhibitory concentration (IC50) is over 20 µM.
Still for that read-out and setting: the value for `O=C(CCN1CC[C@@H](Nc2ccc([N+](=O)[O-])cc2C(F)(F)F)C1)c1csc2ccccc12` [Compound 7, 1-(Benzo[b]thiophen-3-yl)-3-[3-(4-nitro-2-trifluoromethylphenylamino)-(R)-pyrrolidin-1-yl] propan-1-one] was over 20 µM; that for `O=C(CCNC1CCN(c2ccc([N+](=O)[O-])cc2)CC1)c1csc2ccccc12` [Compound 8, 1-(Benzo[b]thiophen-3-yl)-3-[1-(4-nitrophenyl)piperidin-4-ylamino]propan-1-one] was over 20 µM.
Regarding `O=C(CCN1CCCN(c2ccc([N+](=O)[O-])cc2)CC1)c1csc2ccccc12` [Compound 9, 1-(benzo[b]thiophen-3-yl)-3-[4-(4-nitrophenyl)-1,4-diazepan-1-yl]propan-1-one], the IC50 is over 20 µM.
Still for that read-out and setting: the same measure for `O=C(CCN1CCN(c2cnc3ccccc3n2)CC1)c1csc2ccccc12` [Compound 10, 1-(Benzo[b]thiophen-3-yl)-3-[4-(quinoxalin-2-yl)piperazin-1-yl]propan-1-one]: over 20 µM; for `OC(CCN1CCN(c2cccc3ccccc23)CC1)c1csc2ccccc12` (centres unmarked) [Compound 11]: 6.13 µM.
Turning to `COc1ccccc1N1CCN(CCC(O)c2csc3ccccc23)CC1` (centres unmarked) [Compound 13], the 50% inhibitory concentration (IC50) stood at 1.07 µM.
The same measure, in the same setting: the same measure for `Oc1ccccc1N1CCN(CCC(O)c2csc3ccccc23)CC1` (centres unmarked) [Compound 14]: 13.7 µM.
As for `COc1cccc(N2CCN(CCC(O)c3csc4ccc(F)cc34)CC2)c1` (centres unmarked) [Compound 16, 1-(5-fluorobenzo[b]thiophen-3-yl)-3-[4-(3-methoxyphenyl)piperazin-1-yl]propan-1-ol], the half-inhibitory concentration (IC50) stood at 1.67 µM.
The same measure, in the same setting: the same measure for `OC(CCN1CCN(c2cccc3[nH]ccc23)CC1)c1csc2ccccc12` (centres unmarked) [Compound 17]: 6.99 µM.
On the same count and under the same terms, the value for `OC(CCN1CCN(c2cccc3[nH]ccc23)CC1)c1csc2ccc(F)cc12` (centres unmarked) [Compound 18] was 3.81 µM; that for `OC(CCN1CCN(c2ccc(Cl)cc2)CC1)c1csc2ccccc12` (centres unmarked) [Compound 19] was 5.65 µM; that for `OC(CCN1CCN(c2cccc3cccnc23)CC1)c1csc2ccccc12` (centres unmarked) [Compound 20] was 2.15 µM.
Take `OC(CCN1CCN(c2cccc3cccnc23)CC1)c1csc2ccc(F)cc12` (centres unmarked) [Compound 21]: the IC50 turned out to be 0.79 µM.
Regarding `Cc1ccc2cccc(N3CCN(CCC(O)c4csc5ccccc45)CC3)c2n1` (centres unmarked) [Compound 22], the IC50 is 0.66 µM.
For `OC(CCN1CCN(c2cccc3ncccc23)CC1)c1csc2ccccc12` (centres unmarked) [Compound 24], the IC50 was determined as 1.3 µM.
On to `OC(CCN1CCN(c2ccc3ccccc3n2)CC1)c1csc2ccccc12` (centres unmarked) [Compound 25], for which the 50% inhibitory concentration (IC50) worked out at 2.22 µM.
On to `OC(CCN1CCN(c2cccc3c2OCCO3)CC1)c1csc2ccccc12` (centres unmarked) [Compound 26], for which the IC50 stood at 3.56 µM.
Regarding `OC(CCN1CCN(c2cccc3c2OCCO3)CC1)c1csc2ccc(F)cc12` (centres unmarked) [Compound 27], the concentration for half-maximal inhibition (IC50) was determined as 0.9 µM.
In the case of `O=[N+]([O-])c1ccc(N2CCN(CCC(O)c3csc4ccccc34)CC2)c(C(F)(F)F)c1` (centres unmarked) [Compound 28, 1-(Benzo[b]thiophen-3-yl)-3-[4-(4-nitro-2-trifluoromethylphenyl)piperazin-1-yl]propan-1-ol], the 50% inhibitory concentration (IC50) is 0.68 µM.
Turning to `O=[N+]([O-])c1ccc(N[C@@H]2CCN(CCC(O)c3csc4ccccc34)C2)c(C(F)(F)F)c1` (stereo partly drawn) [Compound 29, 1-(Benzo[b]thiophen-3-yl)-3-[3-(4-nitro-2-trifluoromethylphenylamino)-(R)-pyrrolidin-1-yl]propan-1-ol], the IC50 stood at 2.99 µM.

Staying with this data set, now noted: Plasmodium falciparum, 3D7; Table 2; 48 h incubation; mean of two experiments in triplicate; read-out: P. falciparum 3D7 IC50.
For `OC(CCN1CCN(c2ccc(Cl)cc2)CC1)c1ccsc1` (centres unmarked) [Compound 36], the IC50 is over 20 µM.
Still for that read-out and setting: the same measure for `OC(CCN1CCN(c2ccc(Cl)cc2)CC1)c1ccccc1` (centres unmarked) [Compound 37]: 13 µM; for `COc1ccccc1N1CCN(CCC(O)c2ccccc2)CC1` (centres unmarked) [Compound 39]: over 20 µM.
On the same count and under the same terms, the value for `COc1ccccc1N1CCN(CCC(O)c2ccc3ccccc3c2)CC1` (centres unmarked) [Compound 42] was 0.83 µM; that for `COc1ccccc1N1CCN(CCC(O)c2ccc(C)cc2C)CC1` (centres unmarked) [Compound 43] was 16.9 µM; that for `COc1ccccc1N1CCN(CCC(O)c2ccc3cc(C)ccc3c2)CC1` (centres unmarked) [Compound 44, 1-(6-methylnapth-2-yl)-3-[4-(2-methoxyphenyl)piperazin-1-yl]propan-1-ol] was 9.64 µM.
Still for that read-out and setting: the value for `O=[N+]([O-])c1ccc([C@@]2(NCCC(O)c3ccc4ccccc4c3)CCNC2)c(C(F)(F)F)c1` (stereo partly drawn) [Compound 45, 1-(2-naphthyl)-3-[3-(4-nitro-2-trifluoromethylphenyl)-(S)-pyrrolidin-3-ylamino]-propan-1-ol] was 9.1 µM; that for `Cc1ccc(C(O)CCN2CCN(c3ccccc3O)CC2)c(C)c1` (centres unmarked) [Compound 46] was 18.2 µM.
